Reference: PMC12800093 (Nature Communications, 2025)
Where a SMILES comes first, the peptide text is derived from it. [ ]: non-standard residue; d: D form.

Test system: Mycobacterium tuberculosis complex (MTBC) clinical isolates
Conditions: 96 h

CC(C)[C@@H](NC(=O)[C@H](N)Cc1c[nH]c2ccccc12)C(=O)N[C@@H](C(=O)N[C@H](Cc1c[nH]c2ccccc12)C(=O)N[C@H](Cc1c[nH]cn1)C(=O)N[C@H](CCCNC(=N)N)C(=O)N[C@H](CCCNC(=N)N)C(=O)N[C@H](Cc1c[nH]c2ccccc12)C(=O)N[C@H](Cc1c[nH]c2ccccc12)C(=O)N[C@H](Cc1c[nH]cn1)C(=O)N[C@H](Cc1c[nH]c2ccccc12)C(=O)N[C@H](CCCNC(=N)N)C(=O)N[C@H](CCCCN)C(N)=O)C(C)C [MAD1-RI] (H-[dW][dV][dV][dW][dH][dR][dR][dW][dW][dH][dW][dR][dK]-NH2)
MICs against a panel of drug-resistant clinical Mtb isolates: ≤ 40 µM
